Laboratory results taken from PubChem BioAssay AID2060904 (Molecular Pharmacology Branch, DTP, NCI, 2025).
Values belong to the compound of their own block, whether it stands above or below them.

Test system: 349418-098-R-PDC complex spheroid viability
Experiment: Anticancer human tumor 349418-098-R-PDC patient-derived lung adenocarcinoma cell line growth inhibition [RAS]
Details: for IC50: curve of first compound; for viability, T/C: stronger effect = lower value
In short: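 Agents were tested in combination matrices in half-log decrements from a top concentration at or near clinical Cmax (10 microM if undetermined). Targets were multi-cell spheroids of tumour lines plus HUVEC and MSC stromal cells.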

[1] = second compound 0.000949 µM, first compound 0.0316 µM
[2] = second compound 0.000949 µM, first compound 0.1 µM
[3] = second compound 0.000949 µM, first compound 0.316 µM
[4] = second compound 0.000949 µM, first compound 1 µM
[5] = second compound 0.000949 µM, first compound 3.16 µM
[6] = second compound 0.000949 µM, first compound 10 µM
[7] = second compound 0.003 µM, first compound 0.0316 µM
[8] = second compound 0.003 µM, first compound 0.1 µM
[9] = second compound 0.003 µM, first compound 0.316 µM
[10] = second compound 0.003 µM, first compound 1 µM
[11] = second compound 0.003 µM, first compound 3.16 µM
[12] = second compound 0.003 µM, first compound 10 µM
[13] = second compound 0.00949 µM, first compound 0.0316 µM
[14] = second compound 0.00949 µM, first compound 0.1 µM
[15] = second compound 0.00949 µM, first compound 0.316 µM
[16] = second compound 0.00949 µM, first compound 1 µM
[17] = second compound 0.00949 µM, first compound 3.16 µM
[18] = second compound 0.00949 µM, first compound 10 µM
[19] = second compound 0.03 µM, first compound 0.0316 µM
[20] = second compound 0.03 µM, first compound 0.1 µM
[21] = second compound 0.03 µM, first compound 0.316 µM
[22] = second compound 0.03 µM, first compound 1 µM
[23] = second compound 0.03 µM, first compound 3.16 µM
[24] = second compound 0.03 µM, first compound 10 µM
[25] = second compound 0.0949 µM, first compound 0.0316 µM
[26] = second compound 0.0949 µM, first compound 0.1 µM
[27] = second compound 0.0949 µM, first compound 0.316 µM
[28] = second compound 0.0949 µM, first compound 1 µM
[29] = second compound 0.0949 µM, first compound 3.16 µM
[30] = second compound 0.0949 µM, first compound 10 µM
[31] = second compound 0.3 µM, first compound 0.0316 µM
[32] = second compound 0.3 µM, first compound 0.1 µM
[33] = second compound 0.3 µM, first compound 0.316 µM
[34] = second compound 0.3 µM, first compound 1 µM
[35] = second compound 0.3 µM, first compound 3.16 µM
[36] = second compound 0.3 µM, first compound 10 µM
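Note: spheroids exposed to compound for seven days before viability readout.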

IC50 (second compound 0.000949 µM): < 31.6 nM
IC50 (second compound 0.003 µM): < 31.6 nM
IC50 (second compound 0.00949 µM): < 31.6 nM
IC50 (second compound 0.03 µM): < 31.6 nM
IC50 (second compound 0.0949 µM): < 31.6 nM
IC50 (second compound 0.3 µM): < 31.6 nM
Compound: CC(=O)OC12COC1CC(O)C1(C)C(=O)C(O)C3=C(C)C(OC(=O)C(O)C(NC(=O)OC(C)(C)C)c4ccccc4)CC(O)(C(OC(=O)c4ccccc4)C21)C3(C)C (stereo unspecified) + CCn1c(-c2cccnc2C(C)OC)c2c3cc(ccc31)N1CCOC(CC(NC(=O)C(C(C)C)N(C)C(=O)C3(F)CCN(C(=O)C#CC(C)(C)N(C)C)CC3)C(=O)N3CCCC(N3)C(=O)OCC(C)(C)C2)C1
viability, T/C [1]: 13.4%
viability, T/C [2]: 13%
viability, T/C [3]: 15.4%
viability, T/C [4]: 16.4%
viability, T/C [5]: 15.6%
viability, T/C [6]: 17.3%
viability, T/C [7]: 13.8%
viability, T/C [8]: 13.9%
viability, T/C [9]: 10.9%
viability, T/C [10]: 13.8%
viability, T/C [11]: 16.8%
viability, T/C [12]: 16.9%
viability, T/C [13]: 13.2%
viability, T/C [14]: 13.6%
viability, T/C [15]: 10.2%
viability, T/C [16]: 13.5%
viability, T/C [17]: 17.4%
viability, T/C [18]: 15.9%
viability, T/C [19]: 12.6%
viability, T/C [20]: 13.3%
viability, T/C [21]: 16.2%
viability, T/C [22]: 16.2%
viability, T/C [23]: 17.4%
viability, T/C [24]: 12.6%
viability, T/C [25]: 12.2%
viability, T/C [26]: 13.3%
viability, T/C [27]: 15.7%
viability, T/C [28]: 15.9%
viability, T/C [29]: 16.9%
viability, T/C [30]: 16.8%
viability, T/C [31]: 13%
viability, T/C [32]: 13.2%
viability, T/C [33]: 14.7%
viability, T/C [34]: 15%
viability, T/C [35]: 19.1%
viability, T/C [36]: 21.1%

IC50 (second compound 0.000949 µM): > 10000 nM
IC50 (second compound 0.003 µM): > 10000 nM
IC50 (second compound 0.00949 µM): > 10000 nM
IC50 (second compound 0.03 µM): > 10000 nM
IC50 (second compound 0.0949 µM): > 10000 nM
IC50 (second compound 0.3 µM): > 10000 nM
Compound: NC1c2ccccc2OC12CCN(c1cnc3c(N4CCCc5ncccc54)n[nH]c3n1)CC2 (stereo unspecified) + CCn1c(-c2cccnc2C(C)OC)c2c3cc(ccc31)N1CCOC(CC(NC(=O)C(C(C)C)N(C)C(=O)C3(F)CCN(C(=O)C#CC(C)(C)N(C)C)CC3)C(=O)N3CCCC(N3)C(=O)OCC(C)(C)C2)C1
viability, T/C [1]: 78.4%
viability, T/C [2]: 93.4%
viability, T/C [3]: 90.7%
viability, T/C [4]: 97%
viability, T/C [5]: 108%
viability, T/C [6]: 75.5%
viability, T/C [7]: 97.2%
viability, T/C [8]: 95.3%
viability, T/C [9]: 91%
viability, T/C [10]: 99.4%
viability, T/C [11]: 98.5%
viability, T/C [12]: 71.7%
viability, T/C [13]: 108%
viability, T/C [14]: 95.4%
viability, T/C [15]: 90.3%
viability, T/C [16]: 116%
viability, T/C [17]: 93.6%
viability, T/C [18]: 59.8%
viability, T/C [19]: 93.9%
viability, T/C [20]: 102%
viability, T/C [21]: 115%
viability, T/C [22]: 96.8%
viability, T/C [23]: 98.1%
viability, T/C [24]: 85%
viability, T/C [25]: 105%
viability, T/C [26]: 103%
viability, T/C [27]: 116%
viability, T/C [28]: 91.3%
viability, T/C [29]: 89.7%
viability, T/C [30]: 59.3%
viability, T/C [31]: 84.8%
viability, T/C [32]: 68.8%
viability, T/C [33]: 102%
viability, T/C [34]: 90.8%
viability, T/C [35]: 85.2%
viability, T/C [36]: 61.4%

IC50 (second compound 0.000949 µM): < 3.16 nM
IC50 (second compound 0.003 µM): < 3.16 nM
IC50 (second compound 0.00949 µM): < 3.16 nM
IC50 (second compound 0.03 µM): < 3.16 nM
IC50 (second compound 0.0949 µM): < 3.16 nM
IC50 (second compound 0.3 µM): < 3.16 nM
Compound: Nc1ccn(C2OC(CO)C(O)C2(F)F)c(=O)n1 (stereo unspecified) + CCn1c(-c2cccnc2C(C)OC)c2c3cc(ccc31)N1CCOC(CC(NC(=O)C(C(C)C)N(C)C(=O)C3(F)CCN(C(=O)C#CC(C)(C)N(C)C)CC3)C(=O)N3CCCC(N3)C(=O)OCC(C)(C)C2)C1
viability, T/C (second compound 0.000949 µM, first compound 0.00316 µM): 23.6%
viability, T/C (second compound 0.000949 µM, first compound 0.01 µM): 7.06%
viability, T/C [1]: 5.46%
viability, T/C [2]: 4.18%
viability, T/C [3]: 4.47%
viability, T/C [4]: 3.97%
viability, T/C (second compound 0.003 µM, first compound 0.00316 µM): 22%
viability, T/C (second compound 0.003 µM, first compound 0.01 µM): 6.17%
viability, T/C [7]: 5.46%
viability, T/C [8]: 5.26%
viability, T/C [9]: 4.96%
viability, T/C [10]: 4.2%
viability, T/C (second compound 0.00949 µM, first compound 0.00316 µM): 20.5%
viability, T/C (second compound 0.00949 µM, first compound 0.01 µM): 8.01%
viability, T/C [13]: 5.62%
viability, T/C [14]: 4.89%
viability, T/C [15]: 6.38%
viability, T/C [16]: 3.73%
viability, T/C (second compound 0.03 µM, first compound 0.00316 µM): 19.7%
viability, T/C (second compound 0.03 µM, first compound 0.01 µM): 6.08%
viability, T/C [19]: 4.75%
viability, T/C [20]: 5.13%
viability, T/C [21]: 5.14%
viability, T/C [22]: 3.58%
viability, T/C (second compound 0.0949 µM, first compound 0.00316 µM): 19.9%
viability, T/C (second compound 0.0949 µM, first compound 0.01 µM): 7.64%
viability, T/C [25]: 4.68%
viability, T/C [26]: 4.96%
viability, T/C [27]: 5.01%
viability, T/C [28]: 4.01%
viability, T/C (second compound 0.3 µM, first compound 0.00316 µM): 16.6%
viability, T/C (second compound 0.3 µM, first compound 0.01 µM): 6.52%
viability, T/C [31]: 4.44%
viability, T/C [32]: 4.51%
viability, T/C [33]: 5.17%
viability, T/C [34]: 3.99%
